In patent US8916559B2, “Crystalline compound of 7-[(3R)-3-amino-1-oxo-4-(2, 4, 5-trifluorophenyl)butyl]-5, 6, 7, 8-tetrahydro-3-(tri fluoromethyl)-1, 2, 4 -triazolo[4,3-A]pyrazin” (Sandoz AG, priority 2009, dated 2014):
Where a name gives a salt, the structure may show the parent alone.

Legend:
[1] = Dynamic water vapor sorption measurements (hygroscopicity); assay type: physicochemical; details: for H2O content at 50% r.h. / H2O content at 90% r.h.: dynamic water vapor sorption; for H2O content at 90% r.h.: 90% relative humidity; for hygroscopic behaviour (water adsorption, in words): identical measurement conditions, high relative humidities
Description: Amorphous or mesomorphous forms of a compound can have a very much stronger tendency toward hygroscopicity than crystalline forms. The sitagliptin fumarate compounds described here are characterized in that they have good hygroscopic properties, i.e. absorb little water at high relative humidity. This is evident from table 1 below, which compares the water contents of the crystalline fumarate form A and crystalline hydrochloride at 50% and 90% relative humidity. The data originate from dynamic water vapor adsorption measurements. The water vapor sorption measurement is a suitable method for investigating the hygroscopic properties of solid substances. Water vapor sorption measurements can be carried out in different ways. In general, in this connection, a small sample of ca. 10-30 mg is introduced into a microbalance in a suitable sample carrier. The sample is then exposed to different relative humidities in accordance with a defined program, the change in the sample mass being simultaneously recorded over the time. As a result, insights into the hygroscopic behavior of a substance can be obtained.
Dynamic water vapor adsorption measurements were carried out using an SPS11-100n instrument, manufactured by “Projekt Messtechnik” in Ulm, Germany. For this, ca. 20 mg of the sample were weighed into an aluminum support and this was inserted into the measurement chamber of the instrument. The sample was then subjected to preselected relative humidities in accordance with a defined program, the change in mass being determined over the time. The following measurement program was used: 50% r.h. constant for two hours, then changing the relative humidity to 0% r.h., then changing the relative humidity to 96% r.h., constant at 96% r.h. for four hours and then changing the relative humidity to 50% r.h. and then constant at 50% r.h. for one hour. The change rates set were in each case 5% per hour.

[2] = at temperatures above 40° C.; hydrate of WO 2005/003135; cited from earlier work
[3] = hydrochloride of WO 03/004498 A1; cited from earlier work

## N[C@@H](CC(=O)N1CCn2c(nnc2C(F)(F)F)C1)Cc1cc(F)c(F)cc1F [form A, 7-[(3R)-3-amino-1-oxo-4-(2,4,5-trifluorophenyl)butyl]-5,6,7,8-tetrahydro-3-(trifluoromethyl)-1,2,4-triazolo[4,3-a]pyrazine]
[1]; 50% relative humidity
  water content at 50% relative humidity: ca. 0.3%
[1]; 50% relative humidity, listed as Crystalline sitagliptin fumarate form A
  H2O content at 50% r.h.: 0.25%
[1]; listed as Crystalline sitagliptin fumarate form A
  H2O content at 90% r.h.: 1.33%
[1]; after four hours at 96% relative humidity
  additional water absorbed compared with 50% relative humidity: ca. 1%
[1]
  hygroscopic behaviour (water adsorption, in words): absorbs only a small amount of water

## N[C@@H](CC(=O)N1CCn2c(nnc2C(F)(F)F)C1)Cc1cc(F)c(F)cc1F.O=P(O)(O)O [sitagliptin dihydrogenphosphate salt]
[2]
  phase stability (in words): phase-unstable

## N[C@@H](CC(=O)N1CCn2c(nnc2C(F)(F)F)C1)Cc1cc(F)c(F)cc1F [sitagliptin hydrochloride]
[3]
  hygroscopicity (in words): hygroscopic
[1]; 50% relative humidity, hydrochloride
  H2O content at 50% r.h.: >2.7%^
[1]; hydrochloride
  H2O content at 90% r.h.: >3.6%^
[1]; listed as crystalline sitagliptin hydrochloride monohydrate, hydrochloride
  hygroscopic behaviour (water adsorption, in words): adsorbs significantly more water
